What is called IC50 is the midpoint of a concentration-inhibition curve.

Active and inactive are the calls of the source.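 Rule for the calls: active = IC50, the dose halving KLF5 reporter signal, at most 10 µM; inactive = IC50 above 10 µM or none.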 Where only a bound is given, the exact number is not on record here.

The experiment relates to DLD-1 KLF5 promoter luciferase reporter, luminescence. Kind of experiment: KLF5 promoter reporter inhibitors, SAR follow-up, luminescence, DLD-1 cells, round 1 (AID 434957).
Take `CC(C)c1ccc2nc(Nc3nc4ccc(F)cc4s3)sc2c1`: the IC50 is > 39.8 µM (inactive).

Consider `CC(=O)Nc1ccc2nc(Nc3nc4ccc(F)cc4s3)sc2c1`, for which the IC50 was > 39.8 µM (inactive).

For `CC(C)(C)c1ccc(-c2noc(CCC(=O)Nc3ccccn3)n2)cc1`, the IC50 is 0.159 µM.

Turning to `CC(C)(C)C(=O)Nc1ccc2nn(-c3ccccc3)nc2c1`, the IC50 is 3.18 µM.

In the case of `CC(C)C(=O)Nc1ccc2nn(-c3ccc(Cl)cc3)nc2c1`, the IC50 was 26.3 µM (inactive).

In the case of `CN(C)C(=O)c1ccc2nc(Nc3nc4ccc(F)cc4s3)sc2c1`, the IC50 was 0.0131 µM.

For `COc1ccc(-n2nc3ccc(NC(=O)C4CCN(S(=O)(=O)c5ccc(Cl)cc5)CC4)cc3n2)cc1`, the IC50 is > 39.8 µM (inactive).

On to `CC(C)(C)C(=O)Nc1ccc2nn(-c3ccc(F)cc3)nc2c1`, for which the IC50 is 4.56 µM.

Consider `COc1ccc(-n2nc3ccc(NC(=O)C(C)(C)C)cc3n2)cc1`, for which the IC50 was > 39.8 µM (inactive).

As to `CCNC(=O)c1ccc2nc(Nc3nc4ccc(F)cc4s3)sc2c1`, the IC50 was 0.0562 µM.

As for `CC(C)(C)c1ccc(-c2noc(CCc3nc4ccccc4[nH]3)n2)cc1`, the IC50 was > 39.8 µM (inactive).

Turning to `CC(C)(C)c1ccc(-c2noc(CCC(=O)NCc3ccccc3)n2)cc1`, the IC50 is 3.57 µM.

For the compound `CC(C)(C)c1ccc(-c2noc(CCC(=O)Nc3ccccc3)n2)cc1`, the IC50 was 0.116 µM.

As to `CC(C)(C)c1ccc(-c2coc(CCC(=O)Nc3ccccn3)n2)cc1`, the IC50 was 19.4 µM (inactive).

As to `CC(C)(C)c1ccc(-c2noc(CCCC(=O)Nc3ccccc3Cl)n2)cc1`, the IC50 is 0.806 µM.

Consider `Cc1cccc(NC(=O)CCc2nc(-c3ccc(C(C)(C)C)cc3)no2)c1`, for which the IC50 is 0.229 µM.

For `Cc1nc(NC(=O)c2ccc3ncsc3c2)sc1C(=O)N(C)C`, the IC50 was > 39.8 µM (inactive).

In the case of `Nc1cc2nn(-c3ccccc3)nc2cc1Cl`, the IC50 is > 39.8 µM (inactive).

`CC(C)(C)c1ccc(-c2noc(CCC(=O)Nc3ccc(N4CCOCC4)nc3)n2)cc1`: the 50% inhibitory concentration (IC50) is 0.267 µM.

`CS(=O)(=O)c1ccc2nc(Nc3nc4ccc(F)cc4s3)sc2c1`: the IC50 was > 39.8 µM (inactive).

In the case of `Cc1ccc(-n2nc3ccc(NC(=O)COc4ccc(C)c(C)c4)cc3n2)cc1`, the IC50 is > 39.8 µM (inactive).

For `CCOc1ccc2nc(Nc3nc4ccc(F)cc4s3)sc2c1`, the IC50 is > 39.8 µM (inactive).

For `CC(C)(C)c1ccc(-c2noc(CCC(=O)Nc3ccncc3)n2)cc1`, the IC50 is 0.107 µM.

`O=C(Nc1cc2nn(-c3ccccc3)nc2cc1Cl)C1COc2ccccc2C1` (stereo unspecified): the IC50 is > 39.8 µM (inactive).

Turning to `O=C(COc1ccccc1)Nc1ccc2nn(-c3cccc(Cl)c3)nc2c1`, the IC50 was > 39.8 µM (inactive).

With `CCOc1ccc(NC(=O)CCc2nc(-c3ccc(C(C)(C)C)cc3)no2)cc1`, the IC50 is 0.285 µM.

Regarding `CCNC(=O)c1sc(NC(=O)c2ccc3ncsc3c2)nc1C`, the IC50 was > 39.8 µM (inactive).

As to `Cc1ccc(OCC(=O)Nc2ccc3nn(-c4cccc(C(F)(F)F)c4)nc3c2)cc1C`, the IC50 was > 39.8 µM (inactive).

On to `O=C(Cc1ccccc1)Nc1cc2nn(-c3ccccc3)nc2cc1Cl`, for which the 50% inhibitory concentration (IC50) is 7.96 µM.

Turning to `CC(NC(=O)c1ccccc1)c1nc(-c2ccc(C(C)(C)C)cc2)no1` (stereo unspecified), the IC50 is > 39.8 µM (inactive).

Take `COc1ccc2nc(Nc3nc4ccc(F)cc4s3)sc2c1`: the IC50 is > 39.8 µM (inactive).

For `COc1ccc(-n2nc3cc(C)c(NC(=O)C(C)C)cc3n2)cc1`, the IC50 was > 39.8 µM (inactive).

As for `CC(=O)c1sc(NC(=O)c2ccc3ncsc3c2)nc1-c1ccccc1`, the IC50 was > 39.8 µM (inactive).

Take `CC(=O)c1sc(NC(=O)c2ccc3ncsc3c2)nc1C`: the IC50 is > 39.8 µM (inactive).

With `Cc1ccc(-n2nc3cc(Cl)c(NC(=O)c4cccnc4)cc3n2)cc1`, the IC50 was > 39.8 µM (inactive).

For `CC1(C)CC(=O)c2sc(NC(=O)c3ccc4ncsc4c3)nc2C1`, the IC50 was > 39.8 µM (inactive).
